From patent US9730970B2, “Seaweed extracts, unsaturated aldehydes, and methods of treatment” (University of Florida Research Foundation, Inc., priority 2013, dated 2017)

System: NQO1
Assay: qPCR of NQO1 transcription in IMR-32 cells
Type: cell-based, human
Protocol: IMR-32 cells (1×10^6 cells/well) were seeded in 6-well plates one day before treatment. Cells were treated with variable concentrations of purified compounds 1-4 for 12 h. Total RNA was extracted with the RNeasy Mini Kit (Qiagen). cDNA was synthesized from 2 μg of total RNA by using SuperScript II Reverse Transcriptase (Invitrogen) and Oligo(dT)12-18 primer (Invitrogen). Real-time PCR was performed in triplicate using GAPDH expression as internal control for normalization.

| Compound | activation of NQO1 transcription (20 μg/mL, 12 h) [fold] | activation of NQO1 transcription (positive control under identical conditions) [fold] |
| --- | --- | --- |
| CCC(Cl)C(O)C(O)/C=C/C=C/C=O (centres unmarked) [Compound 4, 8-chloro-6,7-dihydroxydeca-2,4-dienal] | 6.4 | – |
| CC(C)(C)c1cc(O)ccc1O [tBHQ, Tert-butylhydroquinone] | – | 5.9 |
